Legend:
Zymoseptoria tritici = experiment: Leaf blotch of wheat (SEPTTR) disease control on wheat seedlings; format: in vivo; design: key to SEPTTR 1DP, HV activity at 100 ppm (% control rating) / SEPTTR 3DC, HV activity at 100 ppm (% control rating) / SEPTTR disease control, 1DP / SEPTTR disease control, 3DC / SEPTTR 1DP disease control rating, HV activity / SEPTTR 3DC disease control rating, HV activity / SEPTTR 3DC, LV activity at 125.1 g/H (% Control rating) / SEPTTR 1DP, LV activity at 125.1 g/H (% Control rating) / SEPTTR 1DP disease control rating, LV activity at 125.1 g/H / SEPTTR 3DC disease control rating, LV activity at 125.1 g/H / SEPTTR 3DC disease control rating, HV activity at 100 ppm / SEPTTR 1DP disease control rating, HV activity at 100 ppm / HV activity at 100 ppm SEPTTR 3DC (disease control rating) / HV activity at 100 ppm SEPTTR 1DP (disease control rating) / LV activity at 125.1 g/H SEPTTR 1DP (disease control rating) / LV activity at 125.1 g/H SEPTTR 3DC (disease control rating): A: > 80; B: ≤ 80; C: Not Tested; D: No Activity Observed in the Reported Assay; settings: for SEPTTR 1DP disease control rating, HV activity / SEPTTR 3DC disease control rating, HV activity: HV application at 100 ppm
Protocol: (§1) All fungicides were evaluated using the aforementioned method for their activity vs. all target diseases, unless stated otherwise. Wheat leaf blotch and brown rust activity were also evaluated using track spray applications, in which case the fungicides were formulated as EC formulations, containing 0.1% Trycol 5941 in the spray solutions. Wheat plants (variety Yuma) were grown from seed in a greenhouse in 50% mineral soil/50% soil-less Metro mix until the first leaf was fully emerged, with 7-10 seedlings per pot. These plants were inoculated with an aqueous spore suspension of Zymoseptoria tritici either prior to or after fungicide treatments. After inoculation the plants were kept in 100% relative humidity (one day in a dark dew chamber followed by two to three days in a lighted dew chamber at 20° C.) to permit spores to germinate and infect the leaf. The plants were then transferred to a greenhouse set at 20° C. for disease to develop. When disease symptoms were fully expressed on the 1st leaves of untreated plants, infection levels were assessed on a scale of 0 to 100 percent disease severity. Percent disease control was calculated using the ratio of disease severity on treated plants relative to untreated plants.

Puccinia triticina = experiment: Wheat brown rust (PUCCRT) disease control on wheat seedlings; format: in vivo; design: key to PUCCRT 3DC, HV activity at 100 ppm (% control rating) / PUCCRT disease control, 3DC / PUCCRT 1DP disease control rating, HV activity / PUCCRT 3DC disease control rating, HV activity / PUCCRT 3DC, LV activity at 125.1 g/H (% Control rating) / PUCCRT 1DP, LV activity at 125.1 g/H (% Control rating) / PUCCRT 3DC disease control rating, LV activity at 125.1 g/H / PUCCRT 1DP disease control rating, LV activity at 125.1 g/H / PUCCRT 3DC disease control rating, HV activity at 100 ppm / PUCCRT 1DP disease control rating, HV activity at 100 ppm / HV activity at 100 ppm PUCCRT 3DC (disease control rating) / LV activity at 125.1 g/H PUCCRT 1DP (disease control rating) / LV activity at 125.1 g/H PUCCRT 3DC (disease control rating): A: > 80; B: ≤ 80; C: Not Tested; D: No Activity Observed in the Reported Assay; settings: for PUCCRT 1DP disease control rating, HV activity / PUCCRT 3DC disease control rating, HV activity: HV application at 100 ppm
Protocol: as §1, with “plants. Example B: Evaluation of Fungicidal Activity: Wheat Brown Rust (Puccinia triticina; Synonym: Puccinia recondita f. sp. Tritici; Bayer Code PUCCRT) Wheat plants (variety Yuma) were grown from seed in a greenhouse in 50% mineral soil/50% soil-less Metro mix until the first leaf was fully emerged, with 7-10 seedlings per pot. These plants were inoculated with an aqueous spore suspension of Puccinia triticina either prior to or after fungicide treatments. […] The plants were then transferred to a greenhouse set at 24° C. for disease to develop. Fungicide formulation, application and disease assessment followed the procedures as described in the Example A.” for “plants.”

[1] = high volume application, 100 ppm, 1 day protectant
[2] = high volume application, 100 ppm, 3 day curative
[3] = 1 Day Protectant, wheat leaf blotch
[4] = 3 Day Curative, wheat leaf blotch
[5] = 1 Day Protectant, wheat brown rust
[6] = 3 Day Curative, wheat brown rust
[7] = low volume application, 125.1 g/H, 1 Day Protectant
[8] = low volume application, 125.1 g/H, 3 Day Curative
[9] = HV activity at 100 ppm, 1 Day Protectant, wheat
[10] = HV activity at 100 ppm, 3 Day Curative, wheat
[11] = high volume application, 100 ppm, 1DP
[12] = high volume application, 100 ppm, 3DC
[13] = low volume application, 125.1 g/H, 1 day protectant
[14] = low volume application, 125.1 g/H, 3 day curative

Structure (SMILES): COc1ccnc(C(=O)NC(C)C(=O)OC(C)C(Oc2ccc(F)cc2)c2ccc(F)cc2)c1O (mixture of isomers) [Cmpd 838]
- SEPTTR 1DP disease control rating, HV activity at 100 ppm (Zymoseptoria tritici; [1]): A (> 80)
- SEPTTR 3DC disease control rating, HV activity at 100 ppm (Zymoseptoria tritici; [2]): A (> 80)
- PUCCRT 1DP disease control rating, HV activity at 100 ppm (Puccinia triticina; [1]): A (> 80)
- PUCCRT 3DC disease control rating, HV activity at 100 ppm (Puccinia triticina; [2]): B (≤ 80)

Structure (SMILES): COc1ccnc(C(=O)NC(C)C(=O)OC(C)C(OC(=O)C(C)C)C(C)C)c1O (stereo not shown) [Cmpd 399]
- SEPTTR 1DP disease control rating, HV activity (Zymoseptoria tritici; [3]): B (≤ 80)
- SEPTTR 3DC disease control rating, HV activity (Zymoseptoria tritici; [4]): D
- PUCCRT 1DP disease control rating, HV activity (Puccinia triticina; [5]): B (≤ 80)
- PUCCRT 3DC disease control rating, HV activity (Puccinia triticina; [6]): D

Structure (SMILES): CC[C@H](OC)[C@@H](Oc1ccccc1)[C@H](C)OC(=O)[C@H](C)NC(=O)c1nccc(OC)c1O [Cmpd 403]
- SEPTTR 1DP disease control rating, LV activity (Zymoseptoria tritici; Low volume application at 125.1 g/H, 1 Day Protectant, wheat leaf blotch): B (≤ 80)
- SEPTTR 3DC disease control rating, LV activity (Zymoseptoria tritici; Low volume application at 125.1 g/H, 3 Day Curative, wheat leaf blotch): A (> 80)
- PUCCRT 1DP disease control rating, LV activity (Puccinia triticina; Low volume application at 125.1 g/H, 1 Day Protectant, wheat brown rust): A (> 80)
- PUCCRT 3DC disease control rating, LV activity (Puccinia triticina; Low volume application at 125.1 g/H, 3 Day Curative, wheat brown rust): A (> 80)

Structure (SMILES): COc1ccnc(C(=O)N[C@@H](CC(C)C)C(=O)O[C@@H](C)[C@H](Oc2ccc(Cl)cc2Cl)C(C)C)c1OC(C)=O [Cmpd 570]
- SEPTTR 1DP, LV activity at 125.1 g/H (% Control rating) (Zymoseptoria tritici; [7]): D
- SEPTTR 3DC, LV activity at 125.1 g/H (% Control rating) (Zymoseptoria tritici; [8]): D
- PUCCRT 1DP, LV activity at 125.1 g/H (% Control rating) (Puccinia triticina; [7]): D
- PUCCRT 3DC, LV activity at 125.1 g/H (% Control rating) (Puccinia triticina; [8]): D

Structure (SMILES): COc1ccnc(C(=O)N[C@@H](C)C(=O)O[C@@H](C)[C@H](Oc2ccc(C)cc2Cl)C(C)(C)C)c1O [Cmpd 1006]
- SEPTTR 1DP disease control rating, HV activity at 100 ppm (Zymoseptoria tritici; [1]): B (≤ 80)
- SEPTTR 3DC disease control rating, HV activity at 100 ppm (Zymoseptoria tritici; [2]): B (≤ 80)
- PUCCRT 1DP disease control rating, HV activity at 100 ppm (Puccinia triticina; [1]): A (> 80)
- PUCCRT 3DC disease control rating, HV activity at 100 ppm (Puccinia triticina; [2]): A (> 80)

Structure (SMILES): CCC(CC)C(Oc1cccc(-c2ccccc2)c1)C(C)OC(=O)C(C)NC(=O)c1nccc(OC)c1O (stereo not shown) [Cmpd 386]
- SEPTTR 1DP disease control rating, HV activity (Zymoseptoria tritici; [3]): D
- SEPTTR 3DC disease control rating, HV activity (Zymoseptoria tritici; [4]): D
- PUCCRT 1DP disease control rating, HV activity (Puccinia triticina; [5]): B (≤ 80)
- PUCCRT 3DC disease control rating, HV activity (Puccinia triticina; [6]): B (≤ 80)

Structure (SMILES): CCC[C@@H](Oc1ccc(C)cc1)[C@H](C)OC(=O)[C@H](C)NC(=O)c1nccc(OC)c1O [Cmpd 1012]
- SEPTTR 1DP disease control rating, HV activity at 100 ppm (Zymoseptoria tritici; [1]): B (≤ 80)
- SEPTTR 3DC disease control rating, HV activity at 100 ppm (Zymoseptoria tritici; [2]): B (≤ 80)
- PUCCRT 1DP disease control rating, HV activity at 100 ppm (Puccinia triticina; [1]): A (> 80)
- PUCCRT 3DC disease control rating, HV activity at 100 ppm (Puccinia triticina; [2]): A (> 80)

Structure (SMILES): C=CC[C@@H](Oc1ccc(F)cc1F)[C@H](C)OC(=O)[C@H](C)NC(=O)c1nccc(OC)c1O [Cmpd 1023]
- SEPTTR 1DP disease control rating, HV activity at 100 ppm (Zymoseptoria tritici; [1]): D
- SEPTTR 3DC disease control rating, HV activity at 100 ppm (Zymoseptoria tritici; [2]): B (≤ 80)
- PUCCRT 1DP disease control rating, HV activity at 100 ppm (Puccinia triticina; [1]): A (> 80)
- PUCCRT 3DC disease control rating, HV activity at 100 ppm (Puccinia triticina; [2]): A (> 80)

Structure (SMILES): CCC(CC)C(Oc1cc(F)ccc1F)C(C)OC(=O)C(C)NC(=O)c1nccc(OC)c1O (stereo not shown) [Cmpd 382]
- SEPTTR 1DP disease control rating, HV activity (Zymoseptoria tritici; [3]): D
- SEPTTR 3DC disease control rating, HV activity (Zymoseptoria tritici; [4]): B (≤ 80)
- PUCCRT 1DP disease control rating, HV activity (Puccinia triticina; [5]): A (> 80)
- PUCCRT 3DC disease control rating, HV activity (Puccinia triticina; [6]): A (> 80)

Structure (SMILES): CCCOC(CC)C(Oc1ccccc1)C(C)OC(=O)C(C)NC(=O)c1nccc(OC)c1O (stereo not shown) [Cmpd 295]
- SEPTTR disease control, 1DP (Zymoseptoria tritici; [9]): D
- SEPTTR disease control, 3DC (Zymoseptoria tritici; [10]): B (≤ 80)
- SEPTTR 1DP disease control rating, HV activity (Zymoseptoria tritici; [3]): D
- SEPTTR 3DC disease control rating, HV activity (Zymoseptoria tritici; [4]): B (≤ 80)
- SEPTTR 1DP, HV activity at 100 ppm (% control rating) (Zymoseptoria tritici; [11]): D
- SEPTTR 3DC, HV activity at 100 ppm (% control rating) (Zymoseptoria tritici; [12]): B (≤ 80)
- PUCCRT disease control, 1DP (Puccinia triticina; [9]): B (≤ 80)
- PUCCRT disease control, 3DC (Puccinia triticina; [10]): B (≤ 80)
- PUCCRT 1DP disease control rating, HV activity (Puccinia triticina; [5]): B (≤ 80)
- PUCCRT 3DC disease control rating, HV activity (Puccinia triticina; [6]): B (≤ 80)
- PUCCRT 1DP, HV activity at 100 ppm (% control rating) (Puccinia triticina; [11]): B (≤ 80)
- PUCCRT 3DC, HV activity at 100 ppm (% control rating) (Puccinia triticina; [12]): B (≤ 80)

Structure (SMILES): C=CC(OC(=O)C(C)NC(=O)c1nccc(OC)c1OCOC(C)=O)C(Oc1ccccc1)C(C)C (stereo not shown) [Cmpd 1092]
- LV activity at 125.1 g/H SEPTTR 1DP (disease control rating) (Zymoseptoria tritici; low volume application, 125.1 g/H, 1 Day Protectant, wheat leaf blotch): D
- LV activity at 125.1 g/H SEPTTR 3DC (disease control rating) (Zymoseptoria tritici; low volume application, 125.1 g/H, 3 Day Curative, wheat leaf blotch): D
- LV activity at 125.1 g/H PUCCRT 1DP (disease control rating) (Puccinia triticina; low volume application, 125.1 g/H, 1 Day Protectant, wheat brown rust): B (≤ 80)
- LV activity at 125.1 g/H PUCCRT 3DC (disease control rating) (Puccinia triticina; low volume application, 125.1 g/H, 3 Day Curative, wheat brown rust): B (≤ 80)

Structure (SMILES): CC(=O)OCOc1c(Cl)ccnc1C(=O)NC(C)C(=O)OC(C)C(Oc1ccccc1)C(C)C (stereo not shown) [Cmpd 679]
- SEPTTR 1DP disease control rating, LV activity at 125.1 g/H (Zymoseptoria tritici; [13]): D
- SEPTTR 3DC disease control rating, LV activity at 125.1 g/H (Zymoseptoria tritici; [14]): B (≤ 80)
- PUCCRT 1DP disease control rating, LV activity at 125.1 g/H (Puccinia triticina; [13]): B (≤ 80)
- PUCCRT 3DC disease control rating, LV activity at 125.1 g/H (Puccinia triticina; [14]): D

Structure (SMILES): CCC(CC)[C@@H](Oc1ccccc1)[C@H](C)OC(=O)[C@H](C)NC(=O)c1nccc(OC)c1O [Cmpd 306]
- SEPTTR 1DP disease control rating, HV activity (Zymoseptoria tritici; [3]): A (> 80)
- SEPTTR 3DC disease control rating, HV activity (Zymoseptoria tritici; [4]): A (> 80)
- PUCCRT 1DP disease control rating, HV activity (Puccinia triticina; [5]): A (> 80)
- PUCCRT 3DC disease control rating, HV activity (Puccinia triticina; [6]): A (> 80)

Structure (SMILES): CCCO[C@@H]([C@H](C)OC(=O)[C@H](C)NC(=O)c1nccc(OC)c1OC(C)=O)[C@H](CC)Oc1ccccc1 [Cmpd 511]
- SEPTTR 1DP, LV activity at 125.1 g/H (% Control rating) (Zymoseptoria tritici; [7]): B (≤ 80)
- SEPTTR 3DC, LV activity at 125.1 g/H (% Control rating) (Zymoseptoria tritici; [8]): A (> 80)
- PUCCRT 1DP, LV activity at 125.1 g/H (% Control rating) (Puccinia triticina; [7]): A (> 80)
- PUCCRT 3DC, LV activity at 125.1 g/H (% Control rating) (Puccinia triticina; [8]): A (> 80)

From patent US20180000085A1, “USE OF PICOLINAMIDE COMPOUNDS WITH FUNGICIDAL ACTIVITY” (DOW AGROSCIENCES LLC, priority 2014, published 2018)
